Our source for the fraction unbound values is patent US20260159474A1, “Aminoindane Compounds and Compositions and Methods of Their Therapeutic Use” (Solvonis Therapeutics Ireland Holdings Limited, priority 2021, published 2026).

The structures appear in SMILES notation. Some results are limits rather than exact numbers.

A short description of the data set: Brain tissue binding by equilibrium dialysis, rat brain homogenate. Type of data set: in vitro ADME. The note with it: male, Sprague Dawley, pH 7.4, read-out: Rat brain tissue binding (Fu %). On the procedure:
Methods: Plasma protein binding and blood tissue binding of test items (0.5 μM) was determined using biological samples from male Sprague Dawley (SD) rats and humans. […] Dexamethasone was used as a control compound for lung tissue binding. Various biological samples were spiked with test compounds according to the methods that follow.
Preparation of brain homogenate samples: Test items were dissolved in DMSO (or an appropriate solvent) to give a 10 mM solution. Further dilutions, to obtain […] working solutions (WS), were then prepared using 50% acetonitrile in Milli Q water. These 100×WS were used to spike the brain homogenate to obtain a final concentration of 5 μM. From this initial spiking solution, control samples (n=3) referred to as T=0, were immediately extracted by protein precipitation.
An equilibrium dialysis method was performed to determine protein binding in the various biological samples described herein. Materials were prepared and methods were in accordance with the following procedures.
Membranes were prepared for use in the equilibrium dialysis experiment. by soaking in deionized water for at least 60 minutes. After this period, 20% of pure ethanol was added, and the membranes were left in this solution for at least 20 minutes. The membranes were then rinsed in Milli-Q water prior to use.
To initiate the experiment, 150 μL of test item-free buffer (isotonic phosphate buffer for plasma and blood, artificial CSF buffer for brain or HBSS buffer for lung) was dispensed on one half-well of a 96-well dialyzer apparatus (HTDialysis LLC), and 150 μL of spiked matrix (plasma, blood, brain or lung) was loaded on the other half-well. Alternative volumes may be used according to the operating instructions of HTDialysis.
The artificial cerebrospinal fluid (CSF) buffer was prepared as follows, NaCl 3.652 g, KCl 93.2 mg, MgCl2 119.96 mg, CaCl2 92.61 mg, Na2HPO4*H2O 268.0 mg. These were dissolved in […] of MilliQ water, and the pH was adjusted to a pH of 7.4 with H3PO4.
Dialysis buffer was prepared by dissolving Na2HPO4 8.69 g, KH2PO4 1.90 g, and NaCl 4.11 g in […] of MilliQ water, and adjusting the pH to 7.4 with H3PO4. […]
Samples were then injected onto an HPLC MS/MS or UPLC MS/MS system. In order to control the integrity of the membrane after the dialysis process, the presence of protein was assessed in the buffer compartment. […]
Samples were analyzed in a LC-MS/MS system using an analytical method to monitor the compound to internal standard peak area ratios as representative of the compound concentrations. Alternatively, samples were analyzed by RapidFire. […]
In general terms: Equilibrium dialysis compares concentrations on both sides of a semipermeable membrane.
In the case of `COc1ccc2c(c1)CC(N)C2` (stereo not shown) [MEAI, 5-methoxy-2-aminoindane], the fraction unbound at 5 h, 5 μM worked out at 0.33.

Turning to `COC(=O)c1cc2c(cc1OC)CC(N)C2` (stereo not shown) [CMP-401], the fraction unbound at 5 h, 5 μM was greater than 0.5.

As for `COc1cc2c(cc1C)CC(N)C2` (stereo not shown) [MMAI, 5-methoxy-6-methyl-2-aminoindane], the fraction unbound at 5 h, 5 μM came to 0.12.

For the compound `COC(=O)c1ccc2c(c1)CC(N)C2` (stereo not shown) [CMP-405, 2-aminoindane-5-methylcarboxylate], the fraction unbound at 5 h, 5 μM is 0.24.
